The source made the active and inactive calls. The rule behind the calls is not given here.
Target: Lethal factor (Bacillus anthracis) (UniProt P15917)
Experiment: Lethal factor protease inhibitors, microsphere cleavage assay, confirmatory dose response, cherry picks (AID 602326)
Conditions: multiplex microsphere protease substrate cleavage assay

Sequence of Lethal factor (Bacillus anthracis) (P15917 whole entry, looked up): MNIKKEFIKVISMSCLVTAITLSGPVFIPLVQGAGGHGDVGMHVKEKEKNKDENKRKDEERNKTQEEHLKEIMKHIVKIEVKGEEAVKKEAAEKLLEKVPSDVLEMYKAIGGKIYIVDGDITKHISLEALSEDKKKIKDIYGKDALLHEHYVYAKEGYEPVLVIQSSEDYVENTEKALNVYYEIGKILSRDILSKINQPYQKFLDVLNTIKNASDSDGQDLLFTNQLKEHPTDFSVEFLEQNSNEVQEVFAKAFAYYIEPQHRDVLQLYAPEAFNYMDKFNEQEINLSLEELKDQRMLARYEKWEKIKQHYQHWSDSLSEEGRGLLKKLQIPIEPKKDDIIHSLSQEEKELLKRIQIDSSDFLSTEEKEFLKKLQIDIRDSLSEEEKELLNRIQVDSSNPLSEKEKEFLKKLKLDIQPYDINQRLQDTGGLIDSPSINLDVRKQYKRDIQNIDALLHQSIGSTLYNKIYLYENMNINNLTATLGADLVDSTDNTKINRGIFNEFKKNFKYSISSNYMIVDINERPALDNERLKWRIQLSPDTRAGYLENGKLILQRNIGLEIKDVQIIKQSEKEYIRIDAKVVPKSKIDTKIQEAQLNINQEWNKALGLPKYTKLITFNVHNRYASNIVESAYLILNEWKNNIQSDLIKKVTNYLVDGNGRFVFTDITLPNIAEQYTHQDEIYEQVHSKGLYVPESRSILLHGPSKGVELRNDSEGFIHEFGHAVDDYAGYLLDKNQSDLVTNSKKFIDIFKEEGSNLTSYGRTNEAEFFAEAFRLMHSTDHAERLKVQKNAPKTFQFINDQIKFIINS

SMILES	EC50
O=c1c(/C=C(\O)c2ccccc2)nc2ccccc2n1-c1ccccc1	> 20 µM (inactive)
Oc1[nH]c(N=C2N=c3ccccc3=N2)c2ccccc12	> 20 µM (inactive)
